Like-named read-outs stand apart in the source and are kept apart here.
Columns and labels:
[1] = molecular target: T1, DYRK1A-ΔC (truncated DYRK1A, catalytic domain residues 1–502) (Rattus norvegicus, UniProt Q63470); test: DYRK1A-ΔC inhibition assay, HPLC/UFLC-based with fluorescent peptide substrate; format: biochemical; details: for remaining activity at 0.1 µM: read-out: DYRK1A-ΔC Remaining Activity at 0.1 µM; for remaining activity at 1 µM: read-out: DYRK1A-ΔC Remaining Activity at 1 µM; for remaining activity at 100 µM: read-out: DYRK1A-ΔC Remaining Activity at 100 µM; for Effect on DYRK1A-ΔC activity (in words): 0.1–100 µM
T1 construct: catalytic domain (residues 1–502) of rat DYRK1A; 6xHis; made in house; host or cells: Escherichia coli BL21
Experimental: W. Becker (Aachen University, Aachen, Germany) and subcloned into pET28a plasmid to produce recombinant 6xHis-tagged DYRK1A catalytic domain (DYRK1A-ΔC). The pET28-Dyrk1a-ΔC plasmid was transformed into Escherichia coli cells (BL21) for production and purification of the enzyme. Briefly, transformed bacteria cells were grown at 37 °C for 4 h until OD was between 0.6–0.7 and further grown at 37 °C for 5 h in the presence of 0.5 mM isopropyl β-D-1-thiogalactopyranoside (IPTG). Cells were harvested by centrifugation at 6000× g, 4 °C for 10 min and the pellet was washed with PBS. The pellet was re-suspended in PBS supplemented with protease inhibitors, 1 mg/mL lysozyme and 0.1% Triton X-100. After 30 min incubation at 4 °C, the lysate was subjected to sonication on ice (6 min with pulse on 30 s/ off 30 s) and pelleted at 10,000× g, 4 °C for 30 min. The supernatant was incubated with His-select nickel resin (Sigma, Saint-Quentin Fallavier, France) for 2 h at 4 °C under agitation, and the resin was transferred into a column and washed with Tris-HCl 20 mM, pH 8, with 5 mM imidazole. Proteins were eluted in Tris-HCl 20 mM, pH 8, 300 mM imidazole, and dialyzed overnight against Tris-HCl 50 mM, pH 8, dithiothreitol (DTT) 10 mM, MgCl2 5 mM. Purified proteins were quantified with Bradford’s reagent (BioRad). Purity was assessed by sodium dodecyl sulfate-polyacrylamide gel electrophoresis (SDS-PAGE). Proteins were kept at −80 °C until use.
The fluorescent peptide substrate was derived from the sequence of the human transcription factor FKHR that is a physiological substrate of DYRK1A [46]. […] The enzymatic reaction was started by addition of the substrate and the mixture was incubated at 37 °C for 30 min. […] The peptides were monitored by fluorimetry (excitation at 485 nm, emission at 530 nm) and quantified by integration of the peak absorbance area. A calibration curve established with different known concentrations of peptides was used for quantification. For inhibition studies with green tea catechins, the compounds, dissolved in water, were added at four different concentrations (up to 100 µM) to the well prior to addition of ATP (1 mM final concentration). Determination of the mode of inhibition (competitive/non-competitive) of the compounds was obtained by carrying assays with different concentrations of ATP (200, 400 and 800 µM).

[2] = molecular target: T2, DYRK1A native human protein (Homo sapiens, UniProt Q13627); test: DYRK1A inhibition assay, HPLC-based (native protein PV3785); format: biochemical
T2 construct: purchased Thermo Fisher Scientific PV3785

DYRK1A = details: cited from earlier work
[3] = EGCG levels in plasma and brain after oral gavage of FontUp; format: in vivo, mice; details: for concentration at 4 h / Kp at 4 h: male, mouse, two days; for Kp at 4 h: brain/plasma, read-out: Kp (brain concentration/plasma concentration)
Experimental: FontUp® was prepared daily as described above and strongly mixed at room temperature. Male mice received an oral gavage of three different doses (25, 50 and 75 mg/Kg), in the morning and in the evening for two or eight days. The last dose was administered 4 h before sacrifice.
Blood samples were obtained by retro-orbital sinus sampling with heparinized capillaries, collected into tubes containing a 1/10 volume of 3.8% sodium citrate, and immediately placed on ice. Plasma was isolated by centrifugation at 2500× g for 15 min at 4 °C. 80 µL of plasma samples were mixed with 20 µL 0.2 M NaH2PO4 solution containing 20% ascorbic acid and 0.1% EDTA, pH 3.6 for polyphenol assays. Plasma samples were store at −80 °C until use. Brains and hearts were harvested, snap-frozen in liquid nitrogen, and stored at −80 °C until use. Plasma total hcy, defined as the total concentration of hcy after quantitative reductive cleavage of all disulfide bonds, and total GSH were assayed using a fluorometric HPLC method previously described. ALT concentrations were determined using the Alanine Aminotransferase Activity Assay Kit (Sigma-Aldrich, Saint-Quentin Fallavier, France), based on the pyruvate generated. Plasma galectin-3 (Abcam ELISA kit, Paris, France), and fibronectin (Abcam ELISA kit) were assessed using sandwich ELISA. After removal of unbound conjugates, bound enzyme activity was assessed by use of a chromogenic substrate for measurement at 450 nm by a microplate reader (Flex Station 3, Molecular Devices, Ltd., Wokhingham, UK).
Brains were homogenized with 1.5 mm diameter beads for 2 min at 25 frequencies/second using a tissue lyser II (Qiagen, Hilden, Germany). The homogenates were centrifuged at 13,000 rpm for 10 min at 4 °C. The supernatants were transferred in a clear tube and mixed with the preservative solution as mentioned at one-tenth of its volume.
The catechin contents was analyzed as previously reported. Two hundred microliters of plasma or brain samples homogenates were thawed at room temperature and 50 µL of 0.4 M sodium phosphate buffer (pH 7.4) were added. The sample was mixed with 10 µL of beta-glucuronidase (250 units) and 10 µL of sulfatase (10 units) and then incubated at 37 °C for 45 min. Then the plasma or brain samples were partitioned with ethyl acetate in the ratio of 1:1 (v/v). The liquid-liquid extraction was carried out three times for 1 min by shaking on vortex and the organic phases (upper phases) were pooled. The combined ethyl acetate phases were evaporated under vacuum to dryness. The dry residue was re-dissolved in 50% methanol in water and was kept at −80 °C before HPLC analysis. HPLC was performed with a LC Prominence (Shimadzu, Kyoto, Japan) coupled with a Coulochem III electrode array detector (ESA Inc., Bedford, MA, USA) using a reverse- Interchrom C18 column (3 µm, 150 × 2.1 mm) eluted with the eluent described below at a flow rate of 0.35 mL/min at 45 °C. HPLC analysis was performed using a linear gradient system with mobile phase A (20 mM NaH2PO4) and mobile phase B (acetonitrile). Linear gradient elution was performed as follows: 100% mobile phase A for 10 min; 55% mobile phase A for 30 min and return to 100% mobile phase A for 15 min. The eluent was monitored using the Coulochem-III electrochemical detector (5011 analytical cell) with potential settings at 600 mV (E1) and 700 mV (E2). Quantification was carried out using the external standard method. Catechin quantification was performed after data acquisition using an LC Solution (Shimadzu).

[4] = 0.1 µM compound, 1 mM ATP, 60 µM peptide, normalized to no inhibitor
[5] = 1 µM compound, 1 mM ATP, 60 µM peptide, normalized to no inhibitor
[6] = 10 µM compound, 1 mM ATP, 60 µM peptide, normalized to no inhibitor, read-out: DYRK1A-ΔC Remaining Activity at 10 µM
[7] = 100 µM compound, 1 mM ATP, 60 µM peptide, normalized to no inhibitor

`Oc1cc(O)c2c(c1)O[C@H](c1ccc(O)c(O)c1)[C@H](O)C2` [EC, epicatechin] showed a remaining activity at 0.1 µM [1, 4] of 89.2 ± 9.5%, a remaining activity at 1 µM [1, 5] of 84.1 ± 9.1% and a remaining activity at 10 µM [1, 6] of 95.6 ± 8.1%. For the same compound, the remaining activity at 100 µM [1, 7] was 88.7 ± 8.2% and the “Effect on DYRK1A-ΔC activity (in words)” value ([1]; 1 mM ATP) was “No effect”.

`O=C(O[C@@H]1Cc2c(O)cc(O)cc2O[C@@H]1c1ccc(O)c(O)c1)c1cc(O)c(O)c(O)c1` [ECG, epicatechin gallate] showed a remaining activity at 0.1 µM ([2]; 0.1 µM compound, 1 mM ATP, 60 µM peptide, native DYRK1A) of 69.9 ± 3.9%, a remaining activity at 1 µM ([2]; 1 µM compound, 1 mM ATP, 60 µM peptide, native DYRK1A) of 12.5 ± 2.4% and a remaining activity at 10 µM ([2]; 10 µM compound, 200 µM ATP, up to 60 min at 37 °C, read-out: DYRK1A Remaining Activity with 200 µM ATP) of 9.4 ± 1.4%. The remaining activity at 10 µM ([2]; 10 µM compound, 400 µM ATP, up to 60 min at 37 °C, read-out: DYRK1A Remaining Activity with 400 µM ATP) was 7 ± 1.1%, the remaining activity at 10 µM ([2]; 10 µM compound, 800 µM ATP, up to 60 min at 37 °C, read-out: DYRK1A Remaining Activity with 800 µM ATP) was 5.4 ± 0.9% and the remaining activity at 10 µM ([2]; 10 µM compound, 1 mM ATP, 60 µM peptide, native DYRK1A, read-out: DYRK1A Remaining Activity at 10 µM) was 4.6 ± 0.9%. For the same compound, the remaining activity at 100 µM ([2]; 100 µM compound, 1 mM ATP, 60 µM peptide, native DYRK1A) was 2.3 ± 0.5%, the “Mode of inhibition of DYRK1A against ATP” value ([2]; DYRK1A-ΔC and DYRK1A, 10 µM compound, ATP 200–800 µM) was “noncompetitive inhibitor” and the remaining activity at 0.1 µM [1, 4] was 78.1 ± 3.6%. The remaining activity at 1 µM [1, 5] was 27.1 ± 7.3%, the remaining activity at 10 µM ([1]; 10 µM compound, 200 µM ATP, up to 60 min at 37 °C, read-out: DYRK1A-ΔC Remaining Activity With 200 µM ATP) was 8 ± 0.8% and the remaining activity at 10 µM ([1]; 10 µM compound, 400 µM ATP, up to 60 min at 37 °C, read-out: DYRK1A-ΔC Remaining Activity with 400 µM ATP) was 6.5 ± 0.9%. The remaining activity at 10 µM ([1]; 10 µM compound, 800 µM ATP, up to 60 min at 37 °C, read-out: DYRK1A-ΔC Remaining Activity with 800 µM ATP) was 4 ± 0.5%, the remaining activity at 10 µM [1, 6] was 11.8 ± 4.2% and the remaining activity at 100 µM [1, 7] was 7.6 ± 2.3%.

In the case of `Oc1cc(O)c2c(c1)O[C@H](c1cc(O)c(O)c(O)c1)[C@H](O)C2` [EGC, epigallocatechin], the remaining activity at 0.1 µM [1, 4] is reported as 99.5 ± 3.2%, the remaining activity at 1 µM [1, 5] is reported as 93.6 ± 2.6% and the remaining activity at 10 µM [1, 6] is reported as 80.6 ± 11.4%. The remaining activity at 100 µM [1, 7] was 81.4 ± 12.8% and the “Effect on DYRK1A-ΔC activity (in words)” value ([1]; 1 mM ATP) was “No effect”.

In the case of `O=C(O[C@@H]1Cc2c(O)cc(O)cc2O[C@@H]1c1cc(O)c(O)c(O)c1)c1cc(O)c(O)c(O)c1` [EGCG, epigallocatechin-3-gallate], the “Mode of inhibition of DYRK1A” value (DYRK1A; against both substrates) is listed as “non-competitive inhibitor”, the IC50 (DYRK1A; read-out: IC50 to inhibit DYRK1A activity) is listed as 330 nM and the “Crossing of the blood-brain barrier (in words)” value ([3]; WT and TgBACDyrk1A mice, FontUp D2, two days, from Kp) is listed as “had crossed the BBB”. The concentration at 4 h ([3]; TgBACDyrk1A, brain, 50 mg/Kg, TgDyrk1A mice, FontUp D2 oral gavage, n = 5, p < 0.07) was 50 nM, the Kp at 4 h ([3]; TgBACDyrk1A, 50 mg/Kg, TgDyrk1A mice, FontUp D2 oral gavage) was 3.6 ± 0.82 and the concentration at 4 h ([3]; TgBACDyrk1A, plasma, 50 mg/Kg, TgDyrk1A mice, FontUp D2 oral gavage, n = 5) was 36 ± 11 nM. For the same compound, the concentration at 4 h ([3]; brain, 50 mg/Kg, WT mice, FontUp D2 oral gavage, n = 5) was 25 ± 7 nM, the Kp at 4 h ([3]; 50 mg/Kg, WT mice, FontUp D2 oral gavage) was 1.2 ± 0.33 and the concentration at 4 h ([3]; plasma, 50 mg/Kg, WT mice, FontUp D2 oral gavage, n = 5) was 65 ± 23 nM. It also gave a concentration at 4 h ([3]; plasma, WT mice, FontUp high dose D3 (75 mg/Kg) oral gavage, last dose 4 h before sacrifice) of 104 ± 11.2 nM, a concentration at 4 h ([3]; plasma, WT mice, FontUp intermediate dose D2 (50 mg/Kg) oral gavage, last dose 4 h before sacrifice) of 63 ± 10.8 nM and a concentration at 4 h ([3]; plasma, WT mice, FontUp low dose D1 (25 mg/Kg) oral gavage, last dose 4 h before sacrifice) of 28 ± 0.0003 nM. The remaining activity at 0.1 µM [1] was 71.3 ± 4.6%, the remaining activity at 1 µM [1] was 16.3 ± 2.3% and the remaining activity at 10 µM ([1]; read-out: DYRK1A-ΔC Remaining Activity at 10 µM) was 6.4 ± 1.1%. For the same compound, the remaining activity at 100 µM [1] was 3.5 ± 0.8%.
